Where two headings read alike, the source gives them in different places. Starred links: 1 amine or outer side, 2 acyl side, 3 side chain; linkers in the order of their positions; H or OH if unused. Positions of bridges follow the written chain, without caps; N, C: chain ends. Non-standard residues stand in square brackets, D forms with d. Residues, ends and D or L forms follow the SMILES beside them. *: point of attachment. Phe(3-(CH2)4CO) = O=C([C@H](Cc1cccc(CCCCC(=O)[*:3])c1)N[*:1])[*:2]; Ala(4-thiazolyl) = N[C@@H](Cc1cscn1)C(=O)O; NEtPhe = CCN[C@@H](Cc1ccccc1)C(=O)O; NMeF = CN[C@@H](Cc1ccccc1)C(=O)O; NMeGABA = CN(CCCC(=O)[*:2])[*:1]; NMeI = CC[C@H](C)[C@H](NC)C(=O)O; NMeβAla = CN(CCC(=O)[*:2])[*:1]; NMeL = CN[C@@H](CC(C)C)C(=O)O; NMeV = CN[C@H](C(=O)O)C(C)C; NMeS = CN[C@@H](CO)C(=O)O; NMeA = CN[C@@H](C)C(=O)O; Piperidide = C1CCN(*)CC1; dNMeA = CN[C@H](C)C(=O)O; β3hA = C[C@H](N)CC(=O)O; Abu = CC[C@H](N)C(=O)O; Sar = CNCC(=O)O; tBu = CC(C)(C)*
What was measured:
[1] = PAMPA (parallel artificial membrane permeability assay); format: in vitro ADME; settings: PAMPA
Outline: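 Artificial membrane was 10% (w/v) egg lecithin plus 0.5% (w/v) cholesterol in dodecane on a PVDF filter. A 10 mM DMSO stock was added at 0.5% (v/v) to donor buffer (50 mM MOPSO, pH 6.5, 5.0% glycocholic acid). After 18 h at 37 °C, LC/MS or LC/UV gave donor and acceptor levels for Pe.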

[2] = Metabolic stability in human hepatic microsome; format: in vitro ADME; settings: microsomes
[3] = membrane permeation rate (Pe), 50 mM MOPSO buffer pH 6.5 with 5.0% glycocholic acid, 37° C., 18 hours, read-out: iPAMPA Pe
[4] = pH 7.4, human hepatic microsome, NADPH(+), read-out: CL NADPH(+)

Row | SMILES | Papp at 18 hours, 50 µM [1, 3] | microsomal CLint at 1 uM [2, 4] | Papp at 18 hours, 50 µM ([1]; pH 6.5) | microsomal CLint at 1 uM ([2]; human, pH 7.4, CL NADPH(+))
1 | CC(C)C[C@@H]1NC(=O)[C@H](CO)N(C)C(=O)C[C@H](C)NC(=O)[C@H](CC(C)C)N(C)C(=O)[C@H](CC(C)C)N(C)C(=O)[C@@H](C)NC(=O)[C@H](C(C)C)NC(=O)[C@H](CC(C)C)N(C)C(=O)[C@H](C(C)C)NC(=O)[C@H](CC(C)C)N(C)C(=O)CN(C)C1=O [DP-652] (cyclo(L[Sar][NMeL]V[NMeL]V[dA][NMeL][NMeL][β3hA][NMeS])) | 30 ×10⁻⁶ cm/s | 51 µL/min/mg | – | –
2 | CC(C)C[C@H]1C(=O)N[C@@H](COC(C)(C)C)C(=O)N(C)[C@@H](Cc2ccccc2)C(=O)N(C)[C@@H](CC(C)C)C(=O)N[C@H](C(=O)N2CCCCC2)CC(=O)N(C)CCC(=O)N[C@@H]([C@@H](C)O)C(=O)N1C [DP-746] ([NMeβAla]T[NMeL]S(tBu)[NMeF][NMeL]D-Piperidide; lactam N-7) | 47 ×10⁻⁶ cm/s | 318 µL/min/mg | – | –
3 | CC(C)C[C@@H]1NC(=O)[C@H](CC(C)C)N(C)C(=O)[C@H](C)N(C)C(=O)[C@@H](C(C)C)NC(=O)C[C@@H](C(=O)N2CCCCC2)NC(=O)[C@H]([C@@H](C)O)NC(=O)[C@H](Cc2ccccc2)N(C)C(=O)[C@H](C)N(C)C(=O)[C@H](CC(C)C)N(C)C(=O)[C@H](Cc2cscn2)NC(=O)[C@H](Cc2ccccc2)N(C)C1=O [DP-625] ([dV][NMeA][NMeL]L[NMeF][Ala(4-thiazolyl)][NMeL][NMeA][NMeF]TD-Piperidide; lactam N-11) | 26 ×10⁻⁶ cm/s | 27 µL/min/mg | – | –
4 | CCN1C(=O)CN(C)C(=O)[C@H]([C@@H](C)O)NC(=O)[C@H](C)N(C)C(=O)C[C@@H](C(=O)N2CCCCC2)NC(=O)[C@H](C(C)C)N(C)C(=O)[C@H](C)NC(=O)[C@H](CC(C)C)N(C)C(=O)[C@@H]2CCCN2C(=O)[C@H](CC(C)C)N(C)C(=O)[C@H](Cc2ccccc2)N(C)C(=O)[C@@H]1Cc1ccccc1 [DP-542] ([NMeA]T[Sar][NEtPhe][NMeF][NMeL]P[NMeL]A[NMeV]D-Piperidide; lactam N-11) | – | – | 22 ×10⁻⁶ cm/s | 21 µL/min/mg
5 | CC(C)C[C@H]1C(=O)N(C)[C@@H](CC(C)C)C(=O)N[C@H](C(=O)N(C)[C@@H](Cc2ccccc2)C(=O)N[C@@H](C)C(=O)N2CCCCC2)CC(=O)N[C@@H](C)C(=O)N(C)[C@@H](C)C(=O)N(C)[C@@H](Cc2ccccc2)C(=O)N(C)[C@@H](CC(C)C)C(=O)N[C@@H]([C@@H](C)O)C(=O)N(C)CC(=O)N[C@@H](C(C)C)C(=O)N1C [DP-188] (A[NMeA][NMeF][NMeL]T[Sar]V[NMeL][NMeL]D[NMeF]A-Piperidide; lactam N-10) | 28 ×10⁻⁶ cm/s | 84 µL/min/mg | – | –
6 | CC(C)C[C@H]1C(=O)N(C)[C@@H](C)C(=O)N[C@@H]([C@@H](C)O)C(=O)N(C)[C@@H](C)C(=O)N(C)[C@@H](Cc2ccccc2)C(=O)N(C)[C@@H](C)C(=O)N[C@@H](C)C(=O)N(C)[C@@H](C)C(=O)N(C)[C@@H](C)C(=O)N[C@H](C(=O)N(C)[C@@H](Cc2ccccc2)C(=O)N[C@@H](C)C(=O)N2CCCCC2)CC(=O)N(C)[C@H](C)C(=O)N1C [DP-444] ([dNMeA][NMeL][NMeA]T[NMeA][NMeF][NMeA]A[NMeA][NMeA]D[NMeF]A-Piperidide; lactam N-11) | 0.72 ×10⁻⁶ cm/s | 3 µL/min/mg | – | –
7 | CNC(=O)CC[C@@H]1NC(=O)[C@H](CC(C)C)N(C)C(=O)[C@H](C)N(C)C(=O)[C@H](CC(C)C)N(C)C(=O)[C@H](Cc2ccccc2)NC(=O)[C@H](Cc2ccccc2)N(C)C(=O)[C@H](CC(C)C)NC(=O)[C@H](CC(C)C)N(C)C(=O)[C@H](C)N(C)C(=O)[C@@H](C(C)C)NC(=O)C[C@@H](C(=O)N2CCCCC2)NC1=O [DP-626] ([dV][NMeA][NMeL]L[NMeF]F[NMeL][NMeA][NMeL]E(NHMe)D-Piperidide; lactam N-11) | 36 ×10⁻⁶ cm/s | 28 µL/min/mg | – | –
8 | CC[C@H](C)[C@H]1C(=O)N[C@@H](COC(C)(C)C)C(=O)N[C@H](C(=O)N2CCCCC2)CC(=O)N(C)[C@@H](C)C(=O)N(C)[C@@H](Cc2ccccc2)C(=O)N(C)CC(=O)N(C)[C@@H](CC(C)C)C(=O)N[C@@H]([C@@H](C)O)C(=O)N(C)[C@@H](C)C(=O)N(C)[C@@H](CC(C)C)C(=O)N1C [DP-138] ([NMeA][NMeF][Sar][NMeL]T[NMeA][NMeL][NMeI]S(tBu)D-Piperidide; lactam N-10) | 31 ×10⁻⁶ cm/s | 48 µL/min/mg | – | –
9 | CC[C@H](C)[C@@H]1NC(=O)[C@H](CC(C)C)N(C)C(=O)[C@H](Cc2ccccc2)NC(=O)[C@H]([C@@H](C)O)NC(=O)[C@H](CC(C)C)N(C)C(=O)[C@H](C(C)C)N(C)C(=O)[C@@H](C)N(C)C(=O)C[C@@H](C(=O)N2CCCCC2)NC(=O)[C@H](CC(C)C)NC(=O)[C@H](Cc2ccccc2)N(C)C1=O [DP-432] ([dNMeA][NMeV][NMeL]TF[NMeL]I[NMeF]LD-Piperidide; lactam N-10) | 26 ×10⁻⁶ cm/s | 396 µL/min/mg | – | –
10 | CC(C)C[C@H]1C(=O)N[C@@H](C(C)C)C(=O)N(C)[C@@H](CC(C)C)C(=O)N(C)[C@@H](CC(C)C)C(=O)N[C@H](C(=O)N(C)[C@@H](Cc2ccccc2)C(=O)N[C@@H](C)C(=O)N2CCCCC2)CC(=O)N[C@H](C(C)C)C(=O)N(C)[C@@H](CC(C)C)C(=O)N(C)[C@@H](Cc2ccccc2)C(=O)N(C)[C@@H](CC(C)C)C(=O)N[C@@H](Cc2c[nH]cn2)C(=O)N1C [DP-586] ([dV][NMeL][NMeF][NMeL]H[NMeL]V[NMeL][NMeL]D[NMeF]A-Piperidide; lactam N-10) | 0.44 ×10⁻⁶ cm/s | 15 µL/min/mg | – | –
11 | CC[C@H](C)[C@H]1C(=O)N[C@H](C(=O)N2CCCCC2)Cc2cccc(c2)CCCCC(=O)N[C@@H](CC(C)C)C(=O)N2CCC[C@H]2C(=O)N(C)[C@@H](C(C)C)C(=O)N[C@@H](Cc2ccccc2)C(=O)N(C)[C@@H](Cc2ccccc2)C(=O)N(C)[C@@H](CC(C)C)C(=O)N[C@@H](C)C(=O)N1C [DP-872] (LP[NMeV]F[NMeF][NMeL]A[NMeI][Phe(3-(CH2)4CO)]-Piperidide; lactam N-9) | 3.1 ×10⁻⁶ cm/s | 397 µL/min/mg | – | –
12 | CC[C@H](C)[C@H]1C(=O)N(C)[C@@H](CC(C)C)C(=O)N[C@H](C(=O)N2CCCCC2)Cc2cccc(c2)CCCCC(=O)N[C@@H]([C@@H](C)O)C(=O)N(C)[C@@H](C)C(=O)N(C)[C@@H](Cc2ccccc2)C(=O)N(C)[C@@H](Cc2ccccc2)C(=O)N(C)[C@@H](CC(C)C)C(=O)NCC(=O)N1C [DP-840] (T[NMeA][NMeF][NMeF][NMeL]G[NMeI][NMeL][Phe(3-(CH2)4CO)]-Piperidide; lactam N-9) | 64 ×10⁻⁶ cm/s | 357 µL/min/mg | – | –
13 | CC[C@@H]1NC(=O)C[C@H](C)NC(=O)[C@H](CC(C)C)N(C)C(=O)[C@H](CC(C)C)N(C)C(=O)[C@H](CC(C)C)N(C)C(=O)[C@@H](C)NC(=O)[C@H](CO)NC(=O)[C@H](CC(C)C)N(C)C(=O)[C@H](CC(C)C)NC(=O)[C@H](CC(C)C)N(C)C(=O)CN(C)C1=O [DP-651] (cyclo([Abu][Sar][NMeL]L[NMeL]S[dA][NMeL][NMeL][NMeL][β3hA])) | 24 ×10⁻⁶ cm/s | 68 µL/min/mg | – | –
14 | CC(C)C[C@@H]1NC(=O)[C@H](Cc2ccccc2)N(C)C(=O)[C@H](C)NC(=O)[C@H](C)N(C)C(=O)C[C@@H](C(=O)N2CCCCC2)NC(=O)[C@H]([C@@H](C)O)NC(=O)[C@H](C)N(C)C(=O)[C@H](C)N(C)C(=O)[C@H](Cc2ccccc2)NC(=O)CN(C)C(=O)[C@H](C(C)C)N(C)C(=O)[C@H](C)N(C)C1=O [DP-470] ([NMeA]A[NMeF]L[NMeA][NMeV][Sar]F[NMeA][NMeA]TD-Piperidide; lactam N-12) | 1.2 ×10⁻⁶ cm/s | 11 µL/min/mg | – | –
15 | CC[C@H](C)[C@@H]1NC(=O)[C@H](Cc2ccccc2)NC(=O)[C@H]([C@@H](C)O)NC(=O)[C@H](CC(C)C)NC(=O)CCN(C)C(=O)C[C@@H](C(=O)N2CCCCC2)NC(=O)[C@H](CC(C)C)NC(=O)[C@H](Cc2ccccc2)N(C)C(=O)[C@H](Cc2ccccc2)NC(=O)[C@H](CC(C)C)NC1=O [DP-424] ([NMeβAla]LTFILF[NMeF]LD-Piperidide; lactam N-10) | 46 ×10⁻⁶ cm/s | 135 µL/min/mg | – | –
16 | CC(C)C[C@H]1C(=O)N(C)[C@@H](Cc2ccccc2)C(=O)N[C@@H]([C@@H](C)O)C(=O)N(C)[C@@H](C)C(=O)N(C)[C@@H](CC(C)C)C(=O)N(C)[C@@H](C)C(=O)N[C@H](C(=O)N2CCCCC2)CC(=O)N(C)CCC(=O)N(C)[C@@H](C)C(=O)N[C@@H](C)C(=O)N(C)[C@@H](C(C)C)C(=O)N1C [DP-414] ([NMeβAla][NMeA]A[NMeV][NMeL][NMeF]T[NMeA][NMeL][NMeA]D-Piperidide; lactam N-11) | 4.4 ×10⁻⁶ cm/s | 20 µL/min/mg | – | –
17 | CC(C)C[C@H]1C(=O)N[C@H](C(=O)N2CCCCC2)CC(=O)N(C)CCCC(=O)N(C)[C@@H](Cc2ccccc2)C(=O)N[C@@H]([C@@H](C)O)C(=O)N(C)[C@@H](CC(C)C)C(=O)N[C@@H](COC(C)(C)C)C(=O)N1C [DP-681] ([NMeGABA][NMeF]T[NMeL]S(tBu)[NMeL]D-Piperidide; lactam N-7) | 28 ×10⁻⁶ cm/s | 275 µL/min/mg | – | –

— patent US9409952B2, “Peptide-compound cyclization method” (Chugai Seiyaku Kabushiki Kaisha, priority 2011, dated 2016)
